Reference: PubChem BioAssay (NCI)
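Cells were grown in 96-well plates and exposed to each compound for 48 hours at five concentrations; endpoints were interpolated linearly between bracketing concentrations, or set to the highest concentration if not reached. Abbreviation: GI50, concentration required for 50% inhibition of growth. The concentration for full growth arrest is given as TGI.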

Columns and labels:
Test in all cases: DTP human tumour cell line panel, 48 h
[1] = test system: NCI-H23 lung
[2] = test system: NCI-H460 lung
[3] = test system: NCI-H522 lung
[4] = test system: NCI/ADR-RES ovarian
[5] = test system: OVCAR-3 ovarian
[6] = test system: OVCAR-4 ovarian
[7] = test system: OVCAR-5 ovarian
[8] = test system: OVCAR-8 ovarian
[9] = test system: PC-3 prostate
[10] = test system: RPMI-8226 leukemia
[11] = test system: RXF 393 renal
[12] = test system: SF-268 CNS
[13] = test system: SF-295 CNS
[14] = test system: SF-539 CNS
[15] = test system: SK-MEL-2 melanoma
[16] = test system: SK-MEL-28 melanoma
[17] = test system: SK-MEL-5 melanoma
[18] = test system: SK-OV-3 ovarian
[19] = test system: SN12C renal
[20] = test system: SNB-19 CNS
[21] = test system: SNB-75 CNS
[22] = test system: SR leukemia
[23] = test system: SW-620 colon
[24] = test system: TK-10 renal
[25] = test system: U251 CNS
[26] = test system: UACC-257 melanoma
[27] = test system: UACC-62 melanoma
[28] = test system: UO-31 renal

For `C=C1C(=O)O[C@@H]2/C=C(/C)C3=CC(=O)[C@@](C)(C[C@H](OC(=O)/C(C)=C\C)[C@@H]12)O3`, the GI50 [1] was 1.52 µM, the TGI [1] was 6.54 µM and the GI50 [2] was 7.04 µM. The TGI [2] was greater than 32.5 µM, the GI50 [3] was 0.545 µM and the TGI [3] was 1.21 µM. For the same compound, the GI50 [4] was 1.06 µM, the TGI [4] was greater than 32.5 µM and the TGI [5] was 2.84 µM. For the same compound, the GI50 [6] was 1.8 µM, the TGI [6] was 6.23 µM and the GI50 [7] was 1.67 µM. The TGI [7] was 7.81 µM, the GI50 [8] was 1 µM and the TGI [8] was 5.89 µM. For the same compound, the GI50 [9] was 4.1 µM, the TGI [9] was 12.1 µM and the GI50 [10] was 0.867 µM. It also gave a TGI [10] of 2.37 µM, a GI50 [11] of 0.648 µM and a TGI [11] of 1.58 µM. It also gave a GI50 [12] of 5 µM, a TGI [12] of 15.4 µM and a GI50 [13] of 5.52 µM. The TGI [13] was 13.4 µM, the GI50 [14] was 1.44 µM and the TGI [14] was 6.36 µM. The GI50 [15] was 1.3 µM, the TGI [15] was 7.15 µM and the GI50 [16] was 1.09 µM. For the same compound, the TGI [16] was 4.6 µM, the GI50 [17] was 2.41 µM and the TGI [17] was 9.16 µM. For the same compound, the GI50 [18] was 10.5 µM, the TGI [18] was greater than 32.5 µM and the TGI [19] was 12.5 µM. It also gave a TGI [20] greater than 32.5 µM, a GI50 [21] of 2.37 µM and a TGI [21] of 27.1 µM. The GI50 [22] was 0.594 µM, the TGI [22] was 3.74 µM and the GI50 [23] was 0.946 µM. The TGI [23] was 2.61 µM, the TGI [24] was 1.99 µM and the GI50 [25] was 3.37 µM. The TGI [25] was 8.69 µM, the GI50 [26] was 0.685 µM and the TGI [26] was 4.44 µM. The GI50 [27] was 0.748 µM, the TGI [27] was 2.4 µM and the GI50 [28] was 0.896 µM. It also gave a TGI [28] of 4 µM.
